Key:
[1] = target: T1, Tyrosinase (Agaricus bisporus, UniProt O42713)
T1 sequence (O42713 whole entry): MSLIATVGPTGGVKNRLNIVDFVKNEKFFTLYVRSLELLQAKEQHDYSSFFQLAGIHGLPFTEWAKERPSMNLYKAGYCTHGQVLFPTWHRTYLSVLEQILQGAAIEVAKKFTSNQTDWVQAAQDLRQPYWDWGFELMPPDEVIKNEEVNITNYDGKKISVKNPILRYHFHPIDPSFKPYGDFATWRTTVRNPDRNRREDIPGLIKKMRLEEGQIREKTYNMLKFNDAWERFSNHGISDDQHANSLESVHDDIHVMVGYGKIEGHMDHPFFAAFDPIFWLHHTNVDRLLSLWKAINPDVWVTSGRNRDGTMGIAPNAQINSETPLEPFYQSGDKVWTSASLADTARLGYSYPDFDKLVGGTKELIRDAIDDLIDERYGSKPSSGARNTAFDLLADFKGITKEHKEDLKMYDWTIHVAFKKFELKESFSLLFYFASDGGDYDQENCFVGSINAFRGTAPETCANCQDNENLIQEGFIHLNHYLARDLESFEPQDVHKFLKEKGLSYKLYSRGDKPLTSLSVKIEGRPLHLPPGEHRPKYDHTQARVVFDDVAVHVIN
Description: Inhibition of diphenolase activity of mushroom tyrosinase using L-DOPA as substrate preincubated for 5 mins by spectroscopic method

[2] = Dissociation constant, pKa of the compound; assay type: physicochemical
[3] = target: T2, Tyrosinase (Agaricus bisporus) (UniProt O42713); assay: Ratio IC50 for Kojic acid to compound for diphenolase activity of mushroom tyrosinase
T2 sequence (whole entry): T1 sequence (O42713 whole entry)

Row | SMILES | IC50 [1] [µM] | pKa [2] | Ratio IC50 [3]
1 | NC(=S)N/N=C/c1ccc2ccccc2n1 | 70 |  | 
2 | NC(=S)N/N=C/c1cc2ccccc2[nH]1 | 402 |  | 
3 | NC(=S)N/N=C/c1ccco1 | 6 | 0.5 | 
4 | NC(=S)N/N=C/c1ccc[nH]1 | 8 | 0.5 | 
5 | COc1coc(/C=N/NC(N)=S)cc1=O | > 2000 |  | 
6 | NC(=S)N/N=C/c1ccc2[nH]ccc2c1 | > 2000 |  | 
7 | Cn1c(/C=N/N=C(/N)S)cc2ccccc21 | 1700 |  | 
8 | NC(=S)N/N=C/c1cccc2ccccc12 | 12 |  | 
9 | NC(=S)N/N=C/c1ccc(F)cc1 | 11 |  | 
10 | NC(=S)N/N=C/c1c[nH]c2ccccc12 | 600 |  | 
11 | Cn1ccc2cc(/C=N/NC(N)=S)ccc21 | > 2000 |  | 
12 | NC(=S)N/N=C/CCc1ccccc1 | 400 |  | 
13 | NC(=S)N/N=C/Cc1ccccc1 | 7 |  | 
14 | Cn1cc(/C=N/NC(N)=S)c2ccccc21 | > 2000 |  | 
15 | NC(=S)N/N=C/c1ccccc1F | 32 |  | 
16 | NC(=S)N/N=C/c1cccc(F)c1 | 9 |  | 
17 | N/C(S)=N/N=C/c1ccccn1 | 45 | 5 | 
18 | NC(=S)N/N=C/c1cc(=O)c(O)co1 | 11 |  | 9
19 | Cc1[nH]c2ccccc2c1/C=N/NC(N)=S | > 2000 |  | 
20 | NC(=S)N/N=C/c1ccc2ccccc2c1 | 1100 |  | 

From ChEMBL document CHEMBL1817639, “Refinement of arylthiosemicarbazone pharmacophore in inhibition of mushroom tyrosinase” (Eur J Med Chem, 2011)
